Measured values: patent US12134608B2, “Benzimidazole derivatives as dual histamine H1 and histamine H4 receptor ligands” (BIOPROJET, priority 2017, dated 2024)
Where two headings read alike, the source gives them in different places.

Tests used:
hERG channel = hERG channel (Homo sapiens, UniProt Q12809); assay: hERG competition binding
Description: Compounds that are antagonists or inverse agonists at the human H1 receptor are often found to bind to the hERG channel, giving rise to arrhythmia possibly leading to sudden cardiac arrest. This led to the withdrawal of several medicines from the clinics. This parameter has thus been evaluated for the compounds of the present application.
The discriminative recognition of hERG channel by the eutomer versus the distomer is shown in the table below where the reported values are the inhibition constant determined by competition binding: […]

human H4 receptor = human H4 receptor (Homo sapiens, UniProt Q9H3N8); assay: hH4 binding competition
Experimental: (§1) Activity at the human H1 receptor is determined by the inhibition of agonist-induced stimulation of radioactive GTP-gamma-S binding at recombinant receptors. […] Affinity for the human H4 receptor is determined by binding competition.

human H1 receptor = human H1 receptor (Homo sapiens, UniProt P35367); assay: hH1 GTPgS: inhibition of agonist-induced stimulation of radioactive GTP-gamma-S binding at recombinant receptors; format: biochemical
Experimental: as §1

[1] = Brain exposure: exposure over 8 hours in brain and plasma after per os administration to mice; format: in vivo; conditions: for Kp: mouse, brain/plasma, oral, examples of the present invention, read-out: ratio of the exposure in brain over the one in plasma
Experimental: Compounds that are acting as […] or inverse agonists on the histamine H1 receptor should not enter the brain. This would lead to unwanted side effects such as sedation and weight gain. The efficiency for entering into the brain may be assessed by administrating the compound per os to mice and measuring the exposure over 8 hours in the brain and in the plasma. The result may be expressed by the ratio of the exposure in brain over the one in plasma.

[2] = Bioavailability / lung exposure after per os administration to mice; format: in vivo
[3] = allergic conjunctivitis; Nakano Y et al. Eur J Pharmacol 2009; cited from earlier work
[4] = eutomers of the invention and their distomers
[5] = comparative compounds of WO 2012/041860, eutomer and distomer

Sequence of human H1 receptor (P35367 whole entry): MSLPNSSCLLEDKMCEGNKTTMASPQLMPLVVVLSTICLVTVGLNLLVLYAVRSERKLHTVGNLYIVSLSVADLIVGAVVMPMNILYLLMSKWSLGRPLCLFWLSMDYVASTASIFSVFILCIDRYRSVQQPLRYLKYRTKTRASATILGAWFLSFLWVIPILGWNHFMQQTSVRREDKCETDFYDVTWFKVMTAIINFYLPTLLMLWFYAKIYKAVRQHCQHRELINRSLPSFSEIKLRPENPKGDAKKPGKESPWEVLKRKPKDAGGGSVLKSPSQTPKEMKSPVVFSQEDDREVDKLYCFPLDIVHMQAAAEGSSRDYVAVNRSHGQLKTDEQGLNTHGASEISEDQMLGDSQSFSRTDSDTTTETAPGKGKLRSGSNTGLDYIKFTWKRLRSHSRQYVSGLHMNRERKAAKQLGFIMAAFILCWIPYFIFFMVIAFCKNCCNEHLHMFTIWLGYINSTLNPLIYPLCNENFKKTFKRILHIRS
Sequence of hERG channel (Q12809 whole entry): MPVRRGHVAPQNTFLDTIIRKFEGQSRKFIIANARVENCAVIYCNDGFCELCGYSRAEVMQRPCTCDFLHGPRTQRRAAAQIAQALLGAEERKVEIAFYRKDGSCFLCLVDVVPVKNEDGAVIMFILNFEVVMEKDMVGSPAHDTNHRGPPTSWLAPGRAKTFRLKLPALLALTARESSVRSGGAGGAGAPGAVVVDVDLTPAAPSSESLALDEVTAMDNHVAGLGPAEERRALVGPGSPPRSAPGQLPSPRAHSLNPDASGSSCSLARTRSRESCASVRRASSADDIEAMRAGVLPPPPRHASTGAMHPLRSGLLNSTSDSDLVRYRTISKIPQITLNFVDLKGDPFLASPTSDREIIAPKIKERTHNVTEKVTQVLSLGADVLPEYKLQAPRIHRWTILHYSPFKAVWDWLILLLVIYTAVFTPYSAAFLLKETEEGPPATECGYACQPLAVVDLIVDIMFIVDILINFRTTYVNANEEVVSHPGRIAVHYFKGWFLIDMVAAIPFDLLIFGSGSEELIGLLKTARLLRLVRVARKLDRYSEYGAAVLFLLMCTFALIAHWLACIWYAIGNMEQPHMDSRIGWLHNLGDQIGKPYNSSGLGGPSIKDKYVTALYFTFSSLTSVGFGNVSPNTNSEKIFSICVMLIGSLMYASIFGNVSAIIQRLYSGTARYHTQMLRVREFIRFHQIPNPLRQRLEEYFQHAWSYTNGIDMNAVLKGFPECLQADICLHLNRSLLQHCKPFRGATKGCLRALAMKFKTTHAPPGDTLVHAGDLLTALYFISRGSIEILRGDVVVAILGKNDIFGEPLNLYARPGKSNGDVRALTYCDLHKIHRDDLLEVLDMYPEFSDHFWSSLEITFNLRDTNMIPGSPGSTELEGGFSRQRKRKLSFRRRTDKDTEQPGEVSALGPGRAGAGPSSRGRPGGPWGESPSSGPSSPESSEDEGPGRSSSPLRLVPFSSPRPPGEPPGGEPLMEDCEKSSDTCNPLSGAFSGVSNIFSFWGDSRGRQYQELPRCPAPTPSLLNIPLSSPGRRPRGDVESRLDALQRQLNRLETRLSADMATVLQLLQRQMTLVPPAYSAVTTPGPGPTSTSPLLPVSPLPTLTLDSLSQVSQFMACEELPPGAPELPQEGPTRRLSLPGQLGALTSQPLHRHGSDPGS
Sequence of human H4 receptor (Q9H3N8 whole entry): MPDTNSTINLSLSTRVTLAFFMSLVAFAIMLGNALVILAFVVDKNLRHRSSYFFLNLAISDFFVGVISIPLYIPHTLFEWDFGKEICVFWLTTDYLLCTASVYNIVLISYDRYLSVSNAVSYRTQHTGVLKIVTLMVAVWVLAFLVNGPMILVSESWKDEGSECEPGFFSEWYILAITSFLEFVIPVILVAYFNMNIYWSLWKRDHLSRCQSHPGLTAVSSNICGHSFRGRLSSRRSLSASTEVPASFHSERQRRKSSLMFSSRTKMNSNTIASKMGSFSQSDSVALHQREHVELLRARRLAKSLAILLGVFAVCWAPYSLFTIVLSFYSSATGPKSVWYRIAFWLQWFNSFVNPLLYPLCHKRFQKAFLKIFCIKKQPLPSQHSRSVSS

Row | Molecule | Ki (hERG channel; [4]) [µM] | Ki (human H4 receptor) [µM] | Kb (human H1 receptor) [µM] | Ki (hERG channel; [5]) [µM] | also measured
1 | CN1CCC(OC(c2nc3ccccc3[nH]2)c2cccc(F)c2O)CC1 (single isomer, unassigned) [Example 1 Distomer A] | 4.21 | 0.788 | 0.225 | – | –
2 | CN1CCC(OC(c2nc3ccccc3[nH]2)c2cccc(F)c2O)CC1 (single isomer, unassigned) [Example 1] | – | – | – | – | Kp ([1]; 10 mg/kg): 0.2; lung AUC ([2]; 10 mg/kg): 20486 ng·h/g
3 | CN1CCC(OC(c2nc3ccc(Cl)c(F)c3[nH]2)c2ccccc2O)CC1 (single isomer, unassigned) [Example 3 Distomer A] | 0.783 | 0.042 | 0.156 | – | –
4 | CN1CCC(OC(c2nc3ccc(Cl)c(F)c3[nH]2)c2ccccc2O)CC1 (single isomer, unassigned) [Example 3] | 2.58 | 0.00061 | 0.00143 | – | Kp ([1]; 1 mg/kg): 0; lung AUC ([2]; 1 mg/kg): 10037 ng·h/g
5 | Cc1cccc2nc(C(OC3CCN(C)CC3)c3ccccc3O)[nH]c12 (single isomer, unassigned) [Example 4 Distomer A] | 2.78 | 0.491 | 0.133 | – | –
6 | Cc1cccc2nc(C(OC3CCN(C)CC3)c3ccccc3O)[nH]c12 (single isomer, unassigned) [Example 4] | 21.3 | 0.00287 | 0.000165 | – | Kp ([1]; 1 mg/kg): 0.3; lung AUC ([2]; 1 mg/kg): 1144 ng·h/g
7 | CN1CCC(OC(c2nc3cc(F)ccc3[nH]2)c2ccccc2O)CC1 (single isomer, unassigned) [Example 5 Distomer A] | 0.646 | 0.249 | 0.0975 | – | –
8 | CN1CCC(OC(c2nc3cc(F)ccc3[nH]2)c2ccccc2O)CC1 (single isomer, unassigned) [Example 5] | 3.21 | 0.000915 | 0.00165 | – | lung AUC ([2]; 1 mg/kg): 1264 ng·h/g
9 | CN1CCC(OC(c2nc3cccc(Cl)c3[nH]2)c2ccccc2O)CC1 (single isomer, unassigned) [Example 6 Distomer A] | 1.49 | 0.474 | 0.598 | – | –
10 | CN1CCC(OC(c2nc3cccc(Cl)c3[nH]2)c2ccccc2O)CC1 (single isomer, unassigned) [Example 6] | 12.5 | 0.00342 | 0.00125 | – | Kp ([1]; 1 mg/kg): 0; lung AUC ([2]; 1 mg/kg): 6316 ng·h/g
11 | Cc1c(Cl)ccc2nc(C(OC3CCN(C)CC3)c3ccccc3O)[nH]c12 (single isomer, unassigned) [Example 7 Distomer A] | 0.586 | 0.0731 | 0.132 | – | –
12 | Cc1c(Cl)ccc2nc(C(OC3CCN(C)CC3)c3ccccc3O)[nH]c12 (single isomer, unassigned) [Example 7] | 3.01 | 0.000727 | 0.00187 | – | lung AUC ([2]; 1 mg/kg): 1169 ng·h/g
13 | Cc1ccc(C(OC2CCN(C)CC2)c2nc3ccc(F)cc3[nH]2)c(O)c1F (single isomer, unassigned) [drawing 27 Distomer, reference compound] | – | – | – | 0.799 | –
14 | Cc1ccc(C(OC2CCN(C)CC2)c2nc3ccc(F)cc3[nH]2)c(O)c1F (single isomer, unassigned) [drawing 27 Eutomer, reference compound] | – | – | – | 0.22 | –
15 | CN1CCC(O[C@H](c2nc3ccccc3[nH]2)c2cccc(F)c2O)CC1 [Example 1, (S)-2-[(1H-benzimidazol-2-yl)(1-methylpiperidin-4-yloxy)methyl]-6-fluorophenol] | 11.4 | 0.00502 | 0.00218 | – | –
16 | Cc1ccc(C(OC2CCN(C)CC2)c2nc3ccccc3[nH]2)c(F)c1 (stereo not shown) [drawing 24 Distomer, reference compound] | – | – | – | 0.363 | –
17 | Cc1ccc(C(OC2CCN(C)CC2)c2nc3ccccc3[nH]2)c(F)c1 (stereo not shown) [drawing 24 Eutomer, reference compound] | – | – | – | 0.503 | –
18 | Cc1ccc(C(OC2CCN(C)CC2)c2nc3ccccc3[nH]2)c(O)c1F (stereo not shown) [drawing 25 Distomer, reference compound] | – | – | – | 5.7 | –
19 | Cc1ccc(C(OC2CCN(C)CC2)c2nc3ccccc3[nH]2)c(O)c1F (stereo not shown) [drawing 25 Eutomer, reference compound] | – | – | – | 3.1 | –
20 | CN1CCC(OC(c2nc3ccccc3[nH]2)c2ccc(F)c(F)c2O)CC1 (stereo not shown) [drawing 26 Distomer, reference compound] | – | – | – | 32 | –
21 | CN1CCC(OC(c2nc3ccccc3[nH]2)c2ccc(F)c(F)c2O)CC1 (stereo not shown) [drawing 26 Eutomer, reference compound] | – | – | – | 18 | –
22 | CN1CCC(OC(c2nc3ccccc3[nH]2)c2ccc(Cl)c(F)c2O)CC1 (stereo not shown) [drawing 28 Distomer, reference compound] | – | – | – | 8.43 | –
23 | CN1CCC(OC(c2nc3ccccc3[nH]2)c2ccc(Cl)c(F)c2O)CC1 (stereo not shown) [drawing 28 Eutomer, reference compound] | – | – | – | 6.68 | –
24 | C[C@@H]1CN([C@H]2CC[C@](C#N)(c3ccc(F)cc3)CC2)CC[C@]1(C(=O)O)c1ccccc1 [levocabastine] | – | – | – | – | eye scratching behavior [3]: inhibited eye scratching behavior
25 | (S)-2-[(1H-benzimidazol-2-yl)(1-methylpiperidin-4-yloxy)methyl]-6-fluorophenol [Example 1] | – | – | – | – | ratio of the exposure in brain over the one in plasma ([1]; 10 mg/kg, comparative compounds, example numbers of WO2012/041860): 13
